Molecular target: T1, SIRT1 (Homo sapiens, UniProt Q96EB6)
T1 sequence (Q96EB6 1-747): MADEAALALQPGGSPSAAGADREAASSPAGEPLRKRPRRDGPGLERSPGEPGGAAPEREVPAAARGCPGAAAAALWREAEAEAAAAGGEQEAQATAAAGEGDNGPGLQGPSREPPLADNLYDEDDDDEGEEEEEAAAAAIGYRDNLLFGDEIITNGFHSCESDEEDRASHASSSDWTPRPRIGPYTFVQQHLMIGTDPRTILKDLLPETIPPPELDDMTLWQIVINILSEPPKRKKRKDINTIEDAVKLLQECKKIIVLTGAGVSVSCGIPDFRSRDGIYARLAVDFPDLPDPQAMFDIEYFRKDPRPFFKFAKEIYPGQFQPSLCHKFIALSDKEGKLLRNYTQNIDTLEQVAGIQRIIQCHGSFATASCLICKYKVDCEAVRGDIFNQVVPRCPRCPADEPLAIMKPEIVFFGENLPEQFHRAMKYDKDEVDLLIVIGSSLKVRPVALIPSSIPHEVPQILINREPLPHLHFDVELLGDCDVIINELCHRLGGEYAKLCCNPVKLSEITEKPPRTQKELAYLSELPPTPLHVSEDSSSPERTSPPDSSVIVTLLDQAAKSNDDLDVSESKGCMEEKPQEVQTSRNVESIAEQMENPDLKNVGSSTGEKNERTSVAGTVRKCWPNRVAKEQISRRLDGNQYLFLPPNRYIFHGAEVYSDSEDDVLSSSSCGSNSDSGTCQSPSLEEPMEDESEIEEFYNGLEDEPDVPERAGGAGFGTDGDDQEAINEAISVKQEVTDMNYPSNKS
Assay: Mass spectrometry based assay to identify modulators of SIRT1 activity (deacetylation of p53-based acetylated peptide substrate)
Type: biochemical
Conditions: SIRT1 activation; for Emax: 25 min, read-out: % FOLD ACT. (percent maximum fold activation)
Description: A mass spectrometry based assay was used to identify modulators of SIRT1 activity. The mass spectrometry based assay utilizes a peptide having 20 amino acid residues as follows: Ac-EE-K(biotin)-GQSTSSHSK(Ac)NleSTEG-K(5TMR)-EE-NH2 (SEQ ID NO: 1) wherein K(Ac) is an acetylated lysine residue and Nle is a norleucine. The peptide is labeled with the fluorophore 5TMR (excitation 540 nm/emission 580 nm) at the C-terminus. The sequence of the peptide substrate is based on p53 with several modifications. In addition, the methionine residue naturally present in the sequence was replaced with the norleucine because the methionine may be susceptible to oxidation during synthesis and purification.
The mass spectrometry assay is conducted as follows: […] peptide substrate and 120 μM βNAD^+ is incubated with 10 nM SIRT1 for 25 minutes at 25° C. in a reaction buffer (50 mM Tris-acetate pH 8, 137 mM NaCl, 2.7 mM KCl, 1 mM MgCl2, 5 mM DTT, 0.05% BSA). Test compounds may be added to the reaction as described above. The SirT1 gene is cloned into a T7-promoter containing vector and transformed into BL21(DE3). After the 25 minute incubation with SIRT1, 10 μL of 10% formic acid is added to stop the reaction. Reactions are sealed and frozen for later mass spec analysis. Determination of the mass of the substrate peptide allows for precise determination of the degree of acetylation (i.e. starting material) as compared to deacetylated peptide (product).
A control for inhibition of sirtuin activity is conducted by adding 1 μL of 500 mM nicotinamide as a negative control at the start of the reaction (e.g., permits determination of maximum sirtuin inhibition). A control for activation of sirtuin activity is conducted using 10 nM of sirtuin protein, with 1 μL of DMSO in place of compound, to determine the amount of deacetylation of the substrate at a given timepoint within the linear range of the assay. This timepoint is the same as that used for test compounds and, within the linear range, the endpoint represents a change in velocity.
For the above assay, SIRT1 protein was expressed and purified as follows. The SirT1 gene was cloned into a T7-promoter containing vector and transformed into BL21(DE3). The protein was expressed by induction with 1 mM IPTG as an N-terminal His-tag fusion protein at 18° C. overnight and harvested at 30,000×g. Cells were lysed with lysozyme in lysis buffer (50 mM Tris-HCl, 2 mM Tris[2-carboxyethyl]phosphine (TCEP), 10 μM ZnCl2, 200 mM NaCl) and further treated with sonication for 10 min for complete lysis. The protein was purified over a Ni-NTA column (Amersham) and fractions containing pure protein were pooled, concentrated and run over a sizing column (Sephadex S200 26/60 global). The peak containing soluble protein was collected and run on an Ion-exchange column (MonoQ). Gradient elution (200 mM-500 mM NaCl) yielded pure protein. This protein was concentrated and dialyzed against dialysis buffer (20 mM Tris-HCl, 2 mM TCEP) overnight. The protein was aliquoted and frozen at −80° C. until further use.

Row | SMILES | Emax | EC1.5
1 | O=C(Nc1ccncc1)N1CCCOc2ccc(-c3cccc(C(F)(F)F)c3)nc21 [Compound 558, N-(pyridin-4-yl)-7-(3-(trifluoromethyl)phenyl)-3,4-dihydropyrido[3,2-b][1,4]oxazepine-5(2H)-carboxamide] | > 200% | B (EC1.5 1-25 μM)
2 | CC1(C)CN(C(=O)Nc2ccncc2)c2nc(-c3cccc(F)c3)ccc2O1 [Compound 561] | > 200% | B (EC1.5 1-25 μM)
3 | O=C(Oc1cccnc1)N1CCOc2ccc(-c3cccc(C(F)(F)F)c3)nc21 [Compound 562] | ≤ 200% | C (EC1.5>25 μM)
4 | Cc1cnccc1NC(=O)N1CCOc2ccc(-c3cccc(C(F)(F)F)c3)nc21 [Compound 564] | ≤ 200% | B (EC1.5 1-25 μM)
5 | O=C(Nc1ncccc1F)N1CCOc2ccc(-c3cccc(C(F)(F)F)c3)nc21 [Compound 568] | > 200% | B (EC1.5 1-25 μM)
6 | Cc1cc(NC(=O)N2CCOc3ccc(-c4c(C)noc4C)nc32)cc(C)n1 [Compound 573] | > 200% | B (EC1.5 1-25 μM)
7 | Cc1cc(NC(=O)N2CCCOc3ccc(-c4cccc(C(F)(F)F)c4)nc32)ccn1 [Compound 577] | > 200% | B (EC1.5 1-25 μM)
8 | O=C(Nc1ccnc(N2CCC2)c1)N1CCCOc2ccc(-c3cccc(C(F)(F)F)c3)nc21 [Compound 579] | > 200% | A (EC1.5<1.0 μM)
9 | O=C(Nc1ccncn1)N1CCCOc2ccc(-c3cccc(F)c3)nc21 [Compound 580] | > 200% | B (EC1.5 1-25 μM)
10 | Cc1cncc(NC(=O)N2CCCOc3ccc(-c4cccc(F)c4)nc32)c1 [Compound 581] | > 200% | B (EC1.5 1-25 μM)
11 | Cc1cncc(NC(=O)N2CCCOc3ccc(-c4cccc(N5CCCC5)c4)nc32)c1 [Compound 610] | > 200% | B (EC1.5 1-25 μM)
12 | O=C(Nc1ccncn1)N1CCCOc2ccc(-c3cccc(Cl)c3)nc21 [Compound 625] | > 200% | A (EC1.5<1.0 μM)
13 | Cc1csc(NC(=O)N2CCCOc3ccc(-c4cccc(N5CCCC5)c4)nc32)n1 [Compound 628] | ≤ 200% | B (EC1.5 1-25 μM)
14 | O=C(NC1(c2ccccn2)CC1)N1CCOc2ccc(-c3cccc(C(F)(F)F)c3)nc21 [Compound 633, N-(1-(pyridin-2-yl)cyclopropyl)-6-(3-(trifluoromethyl)phenyl)-2H-pyrido[3,2-b][1,4]oxazine-4(3H)-carboxamide] | ≤ 200% | C (EC1.5>25 μM)
15 | CC1(C)CC(NC(=O)N2CCOc3ccc(-c4cccc(C(F)(F)F)c4)nc32)CC(C)(C)N1 [Compound 634] | ≤ 200% | C (EC1.5>25 μM)
16 | Cc1ccc(-c2ccc3c(n2)N(C(=O)Nc2ccnc(C)c2)CCCO3)cn1 [Compound 635] | ≤ 200% | C (EC1.5>25 μM)
17 | Cc1cncc(NC(=O)N2CCCOc3ccc(-c4ccc(C)nc4)nc32)c1 [Compound 636] | ≤ 200% | C (EC1.5>25 μM)
18 | O=C(Oc1cccc(OCC(O)CO)c1)N1CCCc2ccc(-c3cccc(C(F)(F)F)c3)nc21 (stereo not shown) [Compound 641, 3-(2,3-dihydroxypropoxy)phenyl 7-(3-(trifluoromethyl)phenyl)-3,4-dihydro-1,8-naphthyridine-1(2H)-carboxylate] | ≤ 200% | B (EC1.5 1-25 μM)
19 | O=C(c1cccc(OCC(O)CO)c1)N1CCCc2ccc(-c3cccc(C(F)(F)F)c3)nc21 (stereo not shown) [Compound 642, (3-(2,3-dihydroxypropoxy)phenyl)(7-(3-(trifluoromethyl)phenyl)-3,4-dihydro-1,8-naphthyridin-1(2H)-yl)methanone] | ≤ 200% | C (EC1.5>25 μM)
20 | O=C(Nc1ncccn1)N1CCCOc2ccc(-c3cccc(C(F)(F)F)c3)nc21 [Compound 643] | > 200% | B (EC1.5 1-25 μM)

Second part, the compound after the results:

Row | Emax | EC1.5 | SMILES
21 | > 200% | A (EC1.5<1.0 μM) | CN1C(=O)CN(C(=O)Nc2cccc(N3CCOCC3)n2)c2nc(-c3cccc(C(F)(F)F)c3)ccc21 [Compound 563]
22 | ≤ 200% | B (EC1.5 1-25 μM) | O=C(Nc1cc(C(F)(F)F)ccn1)N1CCOc2ccc(-c3cccc(C(F)(F)F)c3)nc21 [Compound 565]
23 | > 200% | B (EC1.5 1-25 μM) | O=C(Nc1ncc(F)cc1F)N1CCOc2ccc(-c3cccc(C(F)(F)F)c3)nc21 [Compound 567]
24 | ≤ 200% | C (EC1.5>25 μM) | Cc1cccnc1NC(=O)N1CCOc2ccc(-c3cccc(C(F)(F)F)c3)nc21 [Compound 569]
25 | > 200% | B (EC1.5 1-25 μM) | Cc1cc(NC(=O)N2CCOc3ccc(-c4cnn(C)c4C)nc32)cc(C)n1 [Compound 572]
26 | > 200% | B (EC1.5 1-25 μM) | Cc1cc(NC(=O)N2CCOc3ccc(-c4ccnn4C)nc32)cc(C)n1 [Compound 575]
27 | > 200% | B (EC1.5 1-25 μM) | Cc1cncc(NC(=O)N2CCCOc3ccc(-c4cccc(C(F)(F)F)c4)nc32)c1 [Compound 576]
28 | > 200% | B (EC1.5 1-25 μM) | Cc1cc(NC(=O)N2CCCOc3ccc(-c4cccc(F)c4)nc32)ccn1 [Compound 582]
29 | > 200% | B (EC1.5 1-25 μM) | Cc1csc(NC(=O)N2CCCOc3ccc(-c4cccc(F)c4)nc32)n1 [Compound 583]
30 | > 200% | B (EC1.5 1-25 μM) | O=C(Nc1ccnc(N2CCC2)c1)N1CCCOc2ccc(-c3cccc(F)c3)nc21 [Compound 584]
31 | > 200% | A (EC1.5<1.0 μM) | CC1(C)CN(C(=O)Nc2cncc(F)c2)c2nc(-c3cccc(Cl)c3)ccc2O1 [Compound 601]
32 | > 200% | B (EC1.5 1-25 μM) | CC1(C)CN(C(=O)Nc2cncc(F)c2)c2nc(-c3cccc(F)c3)ccc2O1 [Compound 621]
33 | > 200% | B (EC1.5 1-25 μM) | O=C(Nc1ccncn1)N1CCCOc2ccc(-c3cccc(N4CCCC4)c3)nc21 [Compound 627]
34 | > 200% | B (EC1.5 1-25 μM) | Cc1cncc(NC(=O)N2CC(C)(C)Oc3ccc(-c4cccc(CN5CCCC5)c4)nc32)c1 [Compound 629, 2,2-dimethyl-N-(5-methylpyridin-3-yl)-6-(3-(pyrrolidin-1-ylmethyl)phenyl)-2H-pyrido[3,2-b][1,4]oxazine-4(3H)-carboxamide]
35 | > 200% | B (EC1.5 1-25 μM) | CC1(C)CN(C(=O)Nc2cccnc2)c2nc(-c3cccc(CN4CCCC4)c3)ccc2O1 [Compound 630]
36 | > 200% | B (EC1.5 1-25 μM) | Cc1cc(NC(=O)N2CCOc3ccc(-c4cc(C)nn4C)nc32)cc(C)n1 [Compound 632]
37 | > 200% | B (EC1.5 1-25 μM) | Cc1ccc(-c2ccc3c(n2)N(C(=O)Nc2cc(C)nc(C)c2)CCCO3)cn1 [Compound 637]
38 | > 200% | B (EC1.5 1-25 μM) | Cc1cc(OCC(O)CO)nc(NC(=O)N2CCCc3ccc(-c4cccc(C(F)(F)F)c4)nc32)n1 (stereo not shown) [Compound 640]

Source: US9556201B2, “Bicyclic pyridines and analogs as sirtuin modulators” (GLAXOSMITHKLINE LLC, priority 2009, dated 2017)
